Measured values reported in patent US5804595A, “Kappa opioid receptor agonists” (Regents of the University of Minnesota, priority 1995, dated 1998).

System: mouse vas deferens (MVD) preparations
Assay: Agonist potency in mouse vas deferens (MVD)
Assay type: biochemical
Conditions: arithmetic means of at least three experiments, read-out: IC50 (nM) ± SEM, MVD (Agonist Potencies of Parent Compounds)

With `CN(C(=O)Cc1ccc(Cl)c(Cl)c1)C(CN1CCCC1)c1ccc([N+](=O)[O-])cc1` (racemic) [Compound 23, 2-(3,4-Dichlorophenyl)-N-methyl-N-[(1R,S)-1-(4-nitrophenyl)-2-(1-pyrrolidinyl)ethyl]acetamide] the IC50 was 197 ± 61 nM.
